Columns and labels:
Adenosine receptor A2a [1] = biological target: T1, Adenosine receptor A2a (Homo sapiens, UniProt P29274); assay: Displacement of [3H]ZM241385 from stabilized human adenosine receptor A2a expressed in HEK293 cells followed by receptor capturing on Biocore chips by SPR method
Adenosine receptor A2a [2] = biological target: T1, Adenosine receptor A2a; assay: Displacement of [3H]ZM241385 from wild type human adenosine receptor A2a expressed in HEK293 cells

T1 sequence (P29274 whole entry, looked up): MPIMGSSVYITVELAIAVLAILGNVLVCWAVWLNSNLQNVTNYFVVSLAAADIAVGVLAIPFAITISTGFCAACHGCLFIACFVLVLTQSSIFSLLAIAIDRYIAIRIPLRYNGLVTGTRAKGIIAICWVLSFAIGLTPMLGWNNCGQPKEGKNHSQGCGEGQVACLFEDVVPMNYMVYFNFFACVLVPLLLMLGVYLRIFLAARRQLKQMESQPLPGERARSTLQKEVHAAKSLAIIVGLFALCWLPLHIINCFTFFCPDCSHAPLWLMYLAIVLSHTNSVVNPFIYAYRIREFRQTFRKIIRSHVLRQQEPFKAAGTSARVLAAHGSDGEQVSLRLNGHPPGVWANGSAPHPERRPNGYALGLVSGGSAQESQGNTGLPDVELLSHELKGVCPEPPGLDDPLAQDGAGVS

Structure (SMILES) | pKd (Adenosine receptor A2a [1]) | pKi (Adenosine receptor A2a [2])
Nc1nc(-c2ccccc2O)nc(N2Cc3ccc(F)cc3C2)n1 | 6 | 7.9
CN1CCN(C(=O)c2cccc(-c3nc(N)nc(-c4ccccc4O)n3)c2)CC1 | 7.9 | 9
COCCOc1ccc(N2CCN(CCn3ncc4c3nc(N)n3nc(-c5ccco5)nc43)CC2)cc1 [PRELADENANT] | 9.5 | 8.8

— ChEMBL document CHEMBL1800001, “Biophysical mapping of the adenosine A2A receptor” (J Med Chem, 2011)
